Results as given in patent publication US12692257B2, “2,4,6-tri-substituted pyrimidine compounds as ATR kinase inhibitors” (BEIJING TIDE PHARMACEUTICAL CO., LTD., priority 2020, dated 2026).

Molecular target: ATR kinase (Homo sapiens, UniProt Q13535)
Assay: Assay of ATR kinase activity (time-resolved fluorescence, phosphorylation of p53-derived protein)
Format: biochemical
Details: not given
Protocol: Biotinylated protein derived from p53 (Eurofins, art. No.: 14-952) was phosphorylated with ATR kinase. The amount of phosphorylated protein was determined by time-resolved fluorescence in this assay. The amount of phosphorylated protein was detected by anti-p53-phospho-(serine 15)-K-specific antibody (Cisbio, art. No.: 61GSTDLA) and d2 labeled anti-GST antibody (Cisbio, art. No. 61P08KAE). Before the assay, the following working solutions were formulated as required: 1×reaction buffer (20 mM HEPES PH8.0, 1% glycerol, 0.01% Brij-35), dilution buffer (20 mM HEPES PH8.0, 1% glycerol, 0.01% Brij-35, 5 mM DTT and 1% BSA), stop solution (20 mM HEPES PH8.0, 1% glycerol, 0.01% Brij-35, 250 mM EDTA), detection buffer (50 mM HEPES pH7.0, 150 mM NaCl, 267 mM KF, 0.1% sodium cholate, 0.01% Tween-20, 0.0125% sodium azide). The reagents used above were purchased from Sigma or Invitrogen, except for those whose manufacturers were mentioned.
Operations were as follows:
4× serially diluted compound solutions were prepared with 1× reaction buffer to give 9 compound solutions with different concentrations, and 2.5 μL of the 4× serially diluted compound solutions were added to a 384-well analysis plate (784075, Greiner). 4×p53 substrate working solution (40 nM) was prepared with 1× reaction buffer, and 2.5 μL of the 4×p53 substrate working solution was added to a 384-well analysis plate. 4×ATR/ATRIP working solution (12.8 ng/μL) was prepared with dilution buffer, and 2.5 μL of the 4×pATR/ATRIP working solution was added to a 384-well analysis plate. 4×ATP working solution (2 mM) was prepared with deionized water, and 2.5 μL of the 4×ATP working solution was added to a 384-well analysis plate. The plates were incubated at room temperature in dark for 30 minutes. 5 μL of stop solution was added to the 384 analysis plates. Finally, 5 μL of assay mixture (0.084 ng/μL Anti-phospho-p53(ser15)-K and 5 ng/μL Anti-GST-d2) was added to the 384 well analysis plates, and incubated at room temperature overnight. The fluorescence signal was detected with ENVISION (Perkinelmer) instrument (excitation wavelength: 320 nm, emission wavelength: 665 nm and 615 nm). The inhibition rate in each well was calculated by the fluorescence intensity value in each well:ER (Emission Ratio)=(Fluorescence intensity at 665 nm/Fluorescence intensity at 615 nm); inhibition rate=(ER of positive−ER of assay compound)/(ER of positive−ER of negative)×100%. IC50 values of compounds were calculated by standard software for parameter fitting (GraphPad Prism 6.0).

Sequence of ATR kinase (Q13535 whole entry): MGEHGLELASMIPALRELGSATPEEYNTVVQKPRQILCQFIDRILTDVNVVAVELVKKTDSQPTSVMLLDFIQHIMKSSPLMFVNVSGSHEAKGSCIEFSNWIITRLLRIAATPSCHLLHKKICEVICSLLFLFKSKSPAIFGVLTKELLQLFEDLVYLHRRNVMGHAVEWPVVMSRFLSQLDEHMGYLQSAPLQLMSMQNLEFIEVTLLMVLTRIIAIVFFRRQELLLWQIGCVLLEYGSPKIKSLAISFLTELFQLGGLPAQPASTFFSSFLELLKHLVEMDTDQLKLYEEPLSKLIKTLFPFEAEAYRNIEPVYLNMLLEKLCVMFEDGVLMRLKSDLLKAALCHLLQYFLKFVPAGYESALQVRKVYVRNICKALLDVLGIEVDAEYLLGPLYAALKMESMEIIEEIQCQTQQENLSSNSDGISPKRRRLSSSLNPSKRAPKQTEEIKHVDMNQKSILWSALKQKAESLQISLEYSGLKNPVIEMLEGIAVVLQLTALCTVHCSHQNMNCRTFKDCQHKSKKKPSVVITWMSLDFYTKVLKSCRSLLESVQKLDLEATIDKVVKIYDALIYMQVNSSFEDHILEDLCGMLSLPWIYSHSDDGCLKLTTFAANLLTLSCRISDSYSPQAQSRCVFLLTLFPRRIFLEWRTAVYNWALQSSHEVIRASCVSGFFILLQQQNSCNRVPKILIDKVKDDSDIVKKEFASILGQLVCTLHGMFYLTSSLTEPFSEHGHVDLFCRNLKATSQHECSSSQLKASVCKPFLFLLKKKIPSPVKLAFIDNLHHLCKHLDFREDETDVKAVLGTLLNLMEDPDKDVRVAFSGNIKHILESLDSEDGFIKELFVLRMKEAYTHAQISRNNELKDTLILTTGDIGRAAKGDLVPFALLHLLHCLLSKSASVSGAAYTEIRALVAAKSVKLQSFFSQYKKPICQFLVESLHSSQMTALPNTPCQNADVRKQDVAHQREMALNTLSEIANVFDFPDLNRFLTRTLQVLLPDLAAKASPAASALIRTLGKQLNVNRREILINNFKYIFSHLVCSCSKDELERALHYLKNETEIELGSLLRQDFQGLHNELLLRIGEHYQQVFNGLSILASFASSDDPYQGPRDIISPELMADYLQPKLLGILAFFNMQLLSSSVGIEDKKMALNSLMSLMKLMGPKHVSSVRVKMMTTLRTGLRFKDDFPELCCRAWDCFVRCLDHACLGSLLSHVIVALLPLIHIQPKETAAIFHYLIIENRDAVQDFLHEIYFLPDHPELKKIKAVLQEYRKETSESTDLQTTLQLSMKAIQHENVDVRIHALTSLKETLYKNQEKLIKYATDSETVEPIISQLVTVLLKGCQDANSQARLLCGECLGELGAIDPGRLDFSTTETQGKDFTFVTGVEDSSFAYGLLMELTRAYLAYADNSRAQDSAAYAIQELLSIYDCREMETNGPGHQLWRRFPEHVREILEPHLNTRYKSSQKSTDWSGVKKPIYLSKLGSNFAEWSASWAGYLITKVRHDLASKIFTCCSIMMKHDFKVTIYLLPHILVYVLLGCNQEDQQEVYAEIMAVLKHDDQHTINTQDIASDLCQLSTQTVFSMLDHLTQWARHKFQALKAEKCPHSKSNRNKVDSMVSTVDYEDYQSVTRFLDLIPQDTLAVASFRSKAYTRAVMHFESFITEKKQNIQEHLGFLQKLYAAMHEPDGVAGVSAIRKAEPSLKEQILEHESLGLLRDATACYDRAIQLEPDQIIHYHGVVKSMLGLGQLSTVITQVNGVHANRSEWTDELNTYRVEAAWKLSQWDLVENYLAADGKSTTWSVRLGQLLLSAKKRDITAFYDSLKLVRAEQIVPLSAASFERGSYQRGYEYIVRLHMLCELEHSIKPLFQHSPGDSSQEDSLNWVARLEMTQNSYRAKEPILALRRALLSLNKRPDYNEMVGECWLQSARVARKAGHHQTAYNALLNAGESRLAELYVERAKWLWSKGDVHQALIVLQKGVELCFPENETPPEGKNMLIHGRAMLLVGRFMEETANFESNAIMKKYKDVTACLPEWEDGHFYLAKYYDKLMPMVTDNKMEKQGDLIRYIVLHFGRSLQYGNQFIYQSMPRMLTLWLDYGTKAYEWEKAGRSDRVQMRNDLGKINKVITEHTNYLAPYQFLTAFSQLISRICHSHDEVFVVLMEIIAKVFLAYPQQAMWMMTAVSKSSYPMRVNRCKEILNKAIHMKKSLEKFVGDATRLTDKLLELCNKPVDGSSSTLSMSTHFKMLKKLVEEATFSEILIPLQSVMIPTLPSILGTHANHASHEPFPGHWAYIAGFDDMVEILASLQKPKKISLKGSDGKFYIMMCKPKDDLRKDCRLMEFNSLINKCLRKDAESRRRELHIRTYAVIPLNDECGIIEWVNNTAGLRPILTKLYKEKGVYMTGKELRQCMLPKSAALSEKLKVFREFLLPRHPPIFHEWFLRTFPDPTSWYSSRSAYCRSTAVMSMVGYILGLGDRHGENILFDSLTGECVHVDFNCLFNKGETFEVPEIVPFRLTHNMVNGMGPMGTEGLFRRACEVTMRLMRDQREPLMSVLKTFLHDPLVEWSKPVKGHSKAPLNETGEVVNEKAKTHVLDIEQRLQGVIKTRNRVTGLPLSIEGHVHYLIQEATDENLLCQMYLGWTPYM
Sequence of ATR kinase (Q8WXE1 whole entry partner): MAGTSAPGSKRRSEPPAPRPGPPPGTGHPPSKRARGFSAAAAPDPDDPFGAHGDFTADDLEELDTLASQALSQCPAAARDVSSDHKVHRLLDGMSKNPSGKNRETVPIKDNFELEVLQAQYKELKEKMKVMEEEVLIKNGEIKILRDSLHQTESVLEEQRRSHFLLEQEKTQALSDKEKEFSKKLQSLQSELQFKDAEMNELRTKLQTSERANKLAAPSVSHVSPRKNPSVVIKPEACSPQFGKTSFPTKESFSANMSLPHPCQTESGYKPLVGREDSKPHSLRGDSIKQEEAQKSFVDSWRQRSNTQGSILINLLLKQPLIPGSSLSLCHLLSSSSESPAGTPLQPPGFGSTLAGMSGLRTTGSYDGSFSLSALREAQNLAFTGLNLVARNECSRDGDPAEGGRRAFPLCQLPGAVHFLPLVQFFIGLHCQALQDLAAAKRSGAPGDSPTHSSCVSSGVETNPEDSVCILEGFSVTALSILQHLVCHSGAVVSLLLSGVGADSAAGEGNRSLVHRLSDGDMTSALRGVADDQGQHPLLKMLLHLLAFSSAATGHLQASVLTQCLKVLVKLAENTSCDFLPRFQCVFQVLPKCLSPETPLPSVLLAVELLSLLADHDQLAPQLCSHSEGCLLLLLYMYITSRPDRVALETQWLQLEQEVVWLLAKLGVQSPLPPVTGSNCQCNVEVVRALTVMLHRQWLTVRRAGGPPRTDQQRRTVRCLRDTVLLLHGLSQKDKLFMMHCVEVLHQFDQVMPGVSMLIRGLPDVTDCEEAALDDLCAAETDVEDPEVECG

| Structure (SMILES) | IC50 [nM] |
| --- | --- |
| COc1cncc(-n2nc(C)c(-c3cc(N4CCOC[C@H]4C)nc(-c4cc(F)cc5[nH]ccc45)n3)c2C)c1 [Compound A1] | 11 |
| Cc1nn(-c2ccncc2)c(C)c1-c1cc(N2CCOC[C@H]2C)nc(-c2cc(F)cc3[nH]ccc23)n1 [Compound A2] | 8 |
| Cc1nn(-c2cccnc2)c(C)c1-c1cc(N2CCOC[C@H]2C)nc(-c2cc(F)cc3[nH]ccc23)n1 [Compound A4] | 10 |
| COc1ccc(-n2nc(C)c(-c3cc(N4CCOC[C@H]4C)nc(-c4cc(F)cc5[nH]ccc45)n3)c2C)cn1 [Compound A5] | 30 |
| Cc1nn(-c2ccc(F)nc2)c(C)c1-c1cc(N2CCOC[C@H]2C)nc(-c2cc(F)cc3[nH]ccc23)n1 [Compound A6] | 14 |
| Cc1nn(-c2ccc(=O)[nH]c2)c(C)c1-c1cc(N2CCOC[C@H]2C)nc(-c2cc(F)cc3[nH]ccc23)n1 [Compound A7] | 6 |
| Cc1ncccc1-n1nc(C)c(-c2cc(N3CCOC[C@H]3C)nc(-c3cc(F)cc4[nH]ccc34)n2)c1C [Compound A8] | 9 |
| Cc1nn(-c2cncc(C#N)c2)c(C)c1-c1cc(N2CCOC[C@H]2C)nc(-c2cc(F)cc3[nH]ccc23)n1 [Compound A9] | 16 |
| Cc1nn(-c2cnccc2Cl)c(C)c1-c1cc(N2CCOC[C@H]2C)nc(-c2cc(F)cc3[nH]ccc23)n1 [Compound A10] | 20 |
| CCc1cncc(-n2nc(C)c(-c3cc(N4CCOC[C@H]4C)nc(-c4cc(F)cc5[nH]ccc45)n3)c2C)c1 [Compound A12] | 36 |
| Cc1nn(-c2cncc(C(F)(F)F)c2)c(C)c1-c1cc(N2CCOC[C@H]2C)nc(-c2cc(F)cc3[nH]ccc23)n1 [Compound A13] | 88 |
| Cc1nn(-c2cnccc2F)c(C)c1-c1cc(N2CCOC[C@H]2C)nc(-c2cc(F)cc3[nH]ccc23)n1 [Compound A14] | 9 |
| Cc1nn(-c2ccnnc2)c(C)c1-c1cc(N2CCOC[C@H]2C)nc(-c2cc(F)cc3[nH]ccc23)n1 [Compound A15] | 2 |
| Cc1nn(-c2cccnn2)c(C)c1-c1cc(N2CCOC[C@H]2C)nc(-c2cc(F)cc3[nH]ccc23)n1 [Compound A16] | 1 |
| Cc1nn(-c2cncc(Cl)c2)c(C)c1-c1cc(N2CCOC[C@H]2C)nc(-c2ccnc3[nH]ccc23)n1 [Compound A18] | 1 |
| Cc1c(-c2cc(N3CCOC[C@H]3C)nc(-c3ccnc4[nH]ccc34)n2)c(C(F)(F)F)nn1-c1cncc(F)c1 [Compound A20] | 11 |
| Cc1nn(-c2cncc(C(F)F)c2)c(C)c1-c1cc(N2CCOC[C@H]2C)nc(-c2ccnc3[nH]ccc23)n1 [Compound A21] | 6 |

Tested on: TOV21G (ovarian cancer)
Assay: Cell proliferation inhibition in vitro, CellTiter-Glo, TOV21G
Format: cell-based
Details: Homo sapiens; TOV21G cells, 120 hours, CellTiter-Glo; read-out: TOV21G/IC50/μM
Protocol: (§1) By detecting the effect of compounds on cell activity in vitro in tumor cell lines TOV21G (ovarian cancer) and MV4-11 (leukemia), the inhibitory effect of compounds on cell proliferation was studied in this assay.
(§2) TOV21G cells and MV4-11 cells were purchased from American Type Culture Collection (ATCC).
TOV21G cells were cultured in MCDB105/M199 medium (containing 15% of FBS), and used for assaying when the cell confluence reached 85% or more. About 1000 cells were inoculated in each well of a 96-well culture plate, and cultured for 24 hours. Different concentrations (0-10 μM) of compounds to be assayed were added to treat the cells. Each group was assayed in triplicate. Blank wells (containing medium only) and control wells (inoculated cells without being treated with drug) were set. Cells were cultured for 120 hours. 40 μL of Cell Titer-Glo solutions (Promega, #G7573) were added to each well, and the cells were incubated with shaking for 20 min in the dark. 100 μL of solution was transferred from each well to a 96-well blank plate (Corning, #3917), and the luminescence value was read by Biotek Synergy H1 multifunctional microplate reader.

| Structure (SMILES) | IC50 [µM] |
| --- | --- |
| Cc1nn(-c2ccncc2)c(C)c1-c1cc(N2CCOC[C@H]2C)nc(-c2cc(F)cc3[nH]ccc23)n1 [Compound A2] | 0.397 |
| Cc1nn(-c2cccnc2)c(C)c1-c1cc(N2CCOC[C@H]2C)nc(-c2cc(F)cc3[nH]ccc23)n1 [Compound A4] | 0.313 |
| COc1ccc(-n2nc(C)c(-c3cc(N4CCOC[C@H]4C)nc(-c4cc(F)cc5[nH]ccc45)n3)c2C)cn1 [Compound A5] | 0.647 |
| Cc1nn(-c2ccc(F)nc2)c(C)c1-c1cc(N2CCOC[C@H]2C)nc(-c2cc(F)cc3[nH]ccc23)n1 [Compound A6] | 0.423 |
| Cc1nn(-c2ccc(=O)[nH]c2)c(C)c1-c1cc(N2CCOC[C@H]2C)nc(-c2cc(F)cc3[nH]ccc23)n1 [Compound A7] | 0.33 |
| Cc1ncccc1-n1nc(C)c(-c2cc(N3CCOC[C@H]3C)nc(-c3cc(F)cc4[nH]ccc34)n2)c1C [Compound A8] | 0.274 |
| Cc1nn(-c2cncc(C#N)c2)c(C)c1-c1cc(N2CCOC[C@H]2C)nc(-c2cc(F)cc3[nH]ccc23)n1 [Compound A9] | 0.28 |
| Cc1nn(-c2cnccc2Cl)c(C)c1-c1cc(N2CCOC[C@H]2C)nc(-c2cc(F)cc3[nH]ccc23)n1 [Compound A10] | 0.556 |
| Cc1nn(-c2cnccc2F)c(C)c1-c1cc(N2CCOC[C@H]2C)nc(-c2cc(F)cc3[nH]ccc23)n1 [Compound A14] | 0.522 |
| Cc1nn(-c2ccnnc2)c(C)c1-c1cc(N2CCOC[C@H]2C)nc(-c2cc(F)cc3[nH]ccc23)n1 [Compound A15] | 0.234 |
| Cc1nn(-c2cccnn2)c(C)c1-c1cc(N2CCOC[C@H]2C)nc(-c2cc(F)cc3[nH]ccc23)n1 [Compound A16] | 0.166 |
| Cc1nn(-c2cncc(Cl)c2)c(C)c1-c1cc(N2CCOC[C@H]2C)nc(-c2ccnc3[nH]ccc23)n1 [Compound A18] | 0.208 |
| Cc1c(-c2cc(N3CCOC[C@H]3C)nc(-c3ccnc4[nH]ccc34)n2)c(C(F)(F)F)nn1-c1cncc(F)c1 [Compound A20] | 0.284 |
| Cc1nn(-c2cncc(C(F)F)c2)c(C)c1-c1cc(N2CCOC[C@H]2C)nc(-c2ccnc3[nH]ccc23)n1 [Compound A21] | 0.537 |

Tested on: MV4-11 (leukemia)
Assay: Cell proliferation inhibition in vitro, CellTiter-Glo, MV4-11
Format: cell-based
Details: Homo sapiens; MV4-11 cells, 120 hours, CellTiter-Glo; read-out: MV4-11/IC50/μM
Protocol: as §1, §2
MV-4-11 cells were cultured in IMDM medium (containing 20% of FBS). About 10,000 cells were inoculated in each well of a 96-well culture plate, and treated by adding different concentrations (0-10 μM) of compounds to be assayed. Each group was assayed in triplicate. Blank wells (containing medium only) and control wells (inoculated cells without being treated with drug) were set. Cells were cultured for 120 hours. 40 μL of Cell Titer-Glo solutions were added to each well, and the cells were incubated with shaking for 20 min in the dark. 100 μL of solution was transferred from each well to a 96-well blank plate, and the luminescence value was read by Biotek Synergy HI multifunctional microplate reader. Inhibition rate (%)=100%×(control well−assay well)/(control well−blank well)

| Structure (SMILES) | IC50 [µM] |
| --- | --- |
| COc1cncc(-n2nc(C)c(-c3cc(N4CCOC[C@H]4C)nc(-c4cc(F)cc5[nH]ccc45)n3)c2C)c1 [Compound A1] | 0.658 |
| Cc1nn(-c2ccncc2)c(C)c1-c1cc(N2CCOC[C@H]2C)nc(-c2cc(F)cc3[nH]ccc23)n1 [Compound A2] | 0.635 |
| Cc1nn(-c2cccnc2)c(C)c1-c1cc(N2CCOC[C@H]2C)nc(-c2cc(F)cc3[nH]ccc23)n1 [Compound A4] | 0.193 |
| COc1ccc(-n2nc(C)c(-c3cc(N4CCOC[C@H]4C)nc(-c4cc(F)cc5[nH]ccc45)n3)c2C)cn1 [Compound A5] | 0.778 |
| Cc1nn(-c2ccc(F)nc2)c(C)c1-c1cc(N2CCOC[C@H]2C)nc(-c2cc(F)cc3[nH]ccc23)n1 [Compound A6] | 0.656 |
| Cc1nn(-c2ccc(=O)[nH]c2)c(C)c1-c1cc(N2CCOC[C@H]2C)nc(-c2cc(F)cc3[nH]ccc23)n1 [Compound A7] | 0.1 |
| Cc1ncccc1-n1nc(C)c(-c2cc(N3CCOC[C@H]3C)nc(-c3cc(F)cc4[nH]ccc34)n2)c1C [Compound A8] | 0.382 |
| Cc1nn(-c2cncc(C#N)c2)c(C)c1-c1cc(N2CCOC[C@H]2C)nc(-c2cc(F)cc3[nH]ccc23)n1 [Compound A9] | 0.198 |
| Cc1nn(-c2cnccc2Cl)c(C)c1-c1cc(N2CCOC[C@H]2C)nc(-c2cc(F)cc3[nH]ccc23)n1 [Compound A10] | 0.206 |
| CCc1cncc(-n2nc(C)c(-c3cc(N4CCOC[C@H]4C)nc(-c4cc(F)cc5[nH]ccc45)n3)c2C)c1 [Compound A12] | 0.801 |
| Cc1nn(-c2cncc(C(F)(F)F)c2)c(C)c1-c1cc(N2CCOC[C@H]2C)nc(-c2cc(F)cc3[nH]ccc23)n1 [Compound A13] | 2.2 |
| Cc1nn(-c2cnccc2F)c(C)c1-c1cc(N2CCOC[C@H]2C)nc(-c2cc(F)cc3[nH]ccc23)n1 [Compound A14] | 0.231 |
| Cc1nn(-c2ccnnc2)c(C)c1-c1cc(N2CCOC[C@H]2C)nc(-c2cc(F)cc3[nH]ccc23)n1 [Compound A15] | 0.107 |
| Cc1nn(-c2cccnn2)c(C)c1-c1cc(N2CCOC[C@H]2C)nc(-c2cc(F)cc3[nH]ccc23)n1 [Compound A16] | 0.082 |
| Cc1nn(-c2cncc(Cl)c2)c(C)c1-c1cc(N2CCOC[C@H]2C)nc(-c2ccnc3[nH]ccc23)n1 [Compound A18] | 0.451 |
| Cc1c(-c2cc(N3CCOC[C@H]3C)nc(-c3ccnc4[nH]ccc34)n2)c(C(F)(F)F)nn1-c1cncc(F)c1 [Compound A20] | 0.528 |
| Cc1nn(-c2cncc(C(F)F)c2)c(C)c1-c1cc(N2CCOC[C@H]2C)nc(-c2ccnc3[nH]ccc23)n1 [Compound A21] | 0.332 |
